Assay [1] is described as follows: Hypothermia, agonism testing. In kind it is in vivo. Conditions: rat, i.v. How it is done:
Five minutes after determination of the basal body temperature via an oesophageal temperature probe, the test substance is administered (i.v.). A control group receives only the solvent for the test substances, likewise i.v. The body temperature is measured 7.5, 15, 30 and 60 minutes after i.v. administration. The group size per dose is 5-7 animals (rats).

In assay [2] the test system is glutamate release. Description: Inhibition of glutamate release (rat hippocampus sections, KCl stimulation). In kind it is cell-based. Conditions: 75 mM KCl, ratio S2/S1. The protocol: Inhibition of Glutamate Release
After decapitation of a rat, the skull is opened, and the brain is lifted out and cut through along the median fissure. The hippocampus is exposed, separated from the remaining tissue, cut into 350 μm thick sections and incubated at 37° C. in straining vessels for 60 min. Followed by basal value and stimulation 1 with 75 mM KCl (S 1), the sections are incubated with test substance and then the stimulation with KCl and test substance (S2) is repeated. The glutamate concentration of the samples to be investigated is then measured by means of an enzymatic reaction (GLDH) and fluorometric measurement of NADH. By means of a calibration curve, the glutamate content of the sample is determined, and with knowledge of the protein content the glutamate content/mg of protein can be calculated. The ratio S2/S1 is compared; glutamate release inhibitors reduce this ratio in a concentration-dependent manner.

Assay [3] can be described thus: Subdural haematoma in the rat (SDH). In kind it is in vivo. The note with it: 2 and 4 h after trauma. The protocol: Subdural Haematoma in the Rat (SDH)
Under anaesthesia, the animals' own blood is injected subdurally on one side. An infarct is formed under the haematoma. Substance administration is carried out according to different time schemes and via different administration routes (i.v., i.p.). The infarct size is determined as described in the model of permanent focal ischaemia in the rat (MCA-O).

A short description of assay [4]: Permanent focal cerebral ischaemia in the rat (MCA-O). Format: in vivo. Conditions: 2 and 4 h after occlusion, infarct size after 7 days. How it is done:
Permanent Focal Cerebral Ischaemia in the Rat (MCA-O)
Under isoflurane anaesthesia, the median cerebral artery is exposed on one side and the latter and its side branches are irreversibly sealed by means of electrocoagulation. As a result of the intervention a cerebral infarct is formed. During the operation, the body temperature of the animal is kept at 37° C. After wound closure and wearing off of the anaesthesia, the animals are again released into their cage. The administration of substances is carried out according to different time schemes and via different administration routes (i.v., i.p.) after occlusion. The infarct size is determined after 7 days. To do this, the brain is removed, worked up histologically and the infarct volume is determined with the aid of a computer-assisted analysis system.

Assay [5] has as its target T1, rat cortex membranes (Rattus norvegicus, UniProt P20272).
T1 construct: Membrane protein is prepared from different tissues or from cells by standard methods; from tissue; host or cells: rat cortex membranes
As to the kind of experiment: Binding studies on rat cortex membranes. How it is done:
Binding Studies on Rat Cortex Membranes
Membrane protein is prepared from different tissues or from cells by standard methods. Buffer, labelled ligands, DMSO or test substance are pipetted together, then 100 μg of protein are added, and the mixture is well mixed and incubated in a water bath at 30° C. for 60 min. After expiry of the incubation time, the reaction is stopped by addition of ice-cold incubation buffer to each tube. After filtering off, washing is carried out with ¾ ml of incubation buffer. The filters are transferred to minivials and the radioactivity is determined in a liquid scintillation counter.

For assay [6], the target named is T2, rat cannabinoid receptor CB1 (Rattus norvegicus, UniProt P20272).
T2 construct: contains an open reading frame of 1419 base pairs which corresponds to a protein of 473 amino acids; expressed in transfected cells; host or cells: CHOluc9 reporter cells, stably transfected with plasmid CMV-RH (pRc/CMV)
T2 sequence (P20272 whole entry): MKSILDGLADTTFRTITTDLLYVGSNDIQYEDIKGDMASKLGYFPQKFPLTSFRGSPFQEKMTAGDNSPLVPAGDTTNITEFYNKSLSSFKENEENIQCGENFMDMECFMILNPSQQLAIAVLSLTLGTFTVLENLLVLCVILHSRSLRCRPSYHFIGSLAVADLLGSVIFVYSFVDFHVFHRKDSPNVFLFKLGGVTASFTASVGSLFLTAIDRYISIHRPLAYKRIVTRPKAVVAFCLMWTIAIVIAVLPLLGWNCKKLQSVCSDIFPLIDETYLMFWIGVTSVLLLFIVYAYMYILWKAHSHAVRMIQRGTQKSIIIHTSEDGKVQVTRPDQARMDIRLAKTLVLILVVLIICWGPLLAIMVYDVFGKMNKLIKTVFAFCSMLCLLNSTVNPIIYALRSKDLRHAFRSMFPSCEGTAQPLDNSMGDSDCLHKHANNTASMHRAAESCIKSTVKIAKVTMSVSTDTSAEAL
Description: CB1 luciferase reporter gene test. Format: cell-based. Conditions: CHOCB1 reporter cell line, forskolin-stimulated.
Description: CB1 Luciferase Reporter Gene Test
This construct (plasmid CMV-RH) was employed for transfection experiments.
Stable Transfection of the CHOluc9 Reporter Cells
CHOluc9 cells were cultured in 50% Dulbecco's modified Eagle Medium/50% F-12 (DMEM/F12) which contained 10% foetal calf serum (FCS). Transfections were prepared in 6-well plates. 7.5 μg of Qiagen-purified CMV-RH plasmid DNA were added per 10^5 cells with the DOTAP transfections system, corresponding to the experimental protocol of the manufacturer (Boehringer Mannheim). Transfected cells were selected with 1 mg/ml G418 and individual clones were obtained by limiting dilution on 96-well plates. Cell lines which express the cannabinoid receptor were identified in the presence of forskolin for the inhibition of reporter gene expression after incubation with the cannabinoid receptor agonist, WIN-55,2121-2. Several stably transfected and subcloned cell lines were further characterized by means of RT-PCR, as described under 1.
Test Optimization and Pharmacological Characterization of the CHOCB1 Reporter Cell Line
The following test protocol was used for pharmacological characterization of the cells and for robot-assisted substance screening: the stock cultures were cultured in 50% Dulbecco's modified Eagle Medium/50% F-12 (DMEM/F12) with 10% FCS at 37° C. under 10% CO2 and in each case split 1:10 after 2 to 3 days. […]

The conditions of assay [7]: J. Neurotrauma 1993, 10, 109; cited from earlier work.
In assay [8] the test system is cannabinoid receptor. Conditions: cited from earlier work.
The test system of assay [9] is glutamate release. Conditions: Brain Res. references; cited from earlier work.
For assay [10] the following is noted: Brain Res. references; cited from earlier work.

The source of these data is US6525087B2, “Use of known agonists of the central cannabinoid receptor CB1” (Bayer Aktiengesellschaft, priority 1997, dated 2003).

T1 sequence (P20272 whole entry): as above

`CCCCCc1cc(O)c2c(c1)OC(C)(C)[C@@H]1CCC(C)=C[C@@H]21` [Example 1]: in assay [1], the “Hypothermia ED−1°C. (necessary dose to achieve a maximum temperature drop of 1° C.)” value is given as 0.8 mg/kg i.v. For the same molecule, the “Inhibition of glutamate release, % Inhibition @ 1 μM” value in assay [2] is on record as “no effect”. Also, the results for the “% reduction in the infarct volume” value in [3] (0.3 mg/kg i.v. bolus directly) and in assay [4] (1.0 mg/kg i.v. bolus directly) were 50% and 31%, respectively.

By Ki is commonly meant a dissociation constant, usually derived from enzyme kinetics or from competition with a known ligand. The low end stands for a stronger hold on the target, the high end for a looser hold on the target. By inhibition is commonly meant how much of the control response was suppressed. As a reminder, the IC50 is the midpoint of a concentration-inhibition curve. Low values mean greater potency in that assay, high ones weaker potency in that assay. In assay [5], `CCCCCCC(C)(C)c1cc(O)c2c(c1)OC(C)(C)[C@@H]1CC=C(CO)C[C@@H]21` [Example 5] displayed an inhibition constant Ki of 1 nM. In assay [1], the “Hypothermia ED−1°C. (necessary dose to achieve a maximum temperature drop of 1° C.)” value was determined as 0.01 mg/kg i.v. In addition, the inhibition at 1 µM in assay [2] turned out to be 20%. Besides, the entries for the “% reduction in the infarct volume” value in assay [3] (0.001 mg/kg i.v. bolus directly) and in assay [4] (0.01 mg/kg i.v. bolus directly) were 58% and 48%, respectively. Besides, in assay [6], the half-maximal inhibitory concentration (IC50) came out at 0.48 nM.

For `CCCCCCC(C)(C)c1ccc([C@@H]2C[C@H](O)CC[C@H]2CCCO)c(O)c1` [Example 15], in assay [1], the “Hypothermia ED−1°C. (necessary dose to achieve a maximum temperature drop of 1° C.)” value was 0.03 mg/kg i.v.

For the molecule `Cc1c(C(=O)c2cccc3ccccc23)c2cccc3c2n1[C@H](CN1CCOCC1)CO3` [Example 18], the “Hypothermia ED−1°C. (necessary dose to achieve a maximum temperature drop of 1° C.)” value in assay [1] was determined as 0.2 mg/kg i.v. Moreover, the inhibition at 1 µM in assay [2] amounted to 50%. Moreover, in assay [4] (0.03 mg/kg i.v. bolus directly), the “% reduction in the infarct volume” value was 20%.

As to `CCCCCCC(C)(C)c1cc(O)c2c(c1)OC(C)(C)[C@@H]1CC=C(CO)C[C@@H]21` [HU210], the “neuroprotection in a craniocerebral trauma model” value in [7] was “non-neuroprotective”.

`CCCCCCC(C)(C)c1cc(O)c2c(c1)OC(C)(C)[C@H]1CC=C(CO)C[C@H]21` [HU-211]: the “activity on the cannabinoid receptor” value in assay [8] is “inactive”.

For `O=C(O)c1cc(=O)c2ccccc2[nH]1` [kynurenic acid], the “inhibition of glutamate release in vitro” value in assay [9] is “markedly inhibit glutamate release”.

As to `Cn1c(=O)c2[nH]cnc2n(C)c1=O` [theophylline], in assay [10], the “neuroprotective action in vivo” value is “no neuroprotective action”. Moreover, in assay [9], the “inhibition of glutamate release in vitro” value is recorded as “markedly inhibit glutamate release”.
